According to ChEMBL document CHEMBL1152676, “Combretastatin-like chalcones as inhibitors of microtubule polymerization. Part 1: synthesis and biological evaluation of antivascular activity” (Bioorg Med Chem, 2009):

Key:
K562 [1] = assay: Cell cycle arrest in human K562 cells assessed as accumulation at G0/G1 phase at 20 nM after 24 hrs by propidium iodide staining-based flow cytometry; assay type: functional
K562 [2] = assay: Cell cycle arrest in human K562 cells assessed as accumulation at S phase at 20 nM after 24 hrs by propidium iodide staining-based flow cytometry; assay type: functional
K562 [3] = assay: Antiproliferative activity against human K562 cells after 5 days by MTT assay; assay type: functional, cell-based
[4] = Inhibition of tubulin assembly by Woods method
K562 [5] = assay: Cell cycle arrest in human K562 cells assessed as accumulation at G2/M phase at 20 nM after 24 hrs by propidium iodide staining-based flow cytometry; assay type: functional

Row | SMILES | IC50 (K562 [3]; Homo sapiens, K562, 120 h) | other results
1 | COc1ccc(C(=O)/C=C/c2cc(F)c(OC)c(F)c2)c(OC)c1OC | 4800 nM | Activity (K562 [1]): 51%; Activity (K562 [2]): 3%; IC50 [4]: 31000 nM; Activity (K562 [5]): 46%
2 | COc1ccc(/C=C/C(=O)c2ccc(C)cc2)cc1O | 1500 nM | –
3 | COc1ccc(C(=O)/C=C/c2ccc(OC)c(OP(=O)(O)O)c2)cc1 | – | IC50 (K562 [3]; k562): 300 nM
4 | COc1cc(C(=O)/C=C/c2ccc(Cl)cc2Cl)cc(OC)c1OC | 3800 nM | –
5 | COc1ccc(C(=O)[C@H]2O[C@@H]2c2ccc(OC)c(OC)c2)cc1 (racemic) | > 30000 nM | –
6 | COc1ccc(OC)c(/C=C/C(=O)c2ccc3c(c2)OCO3)c1 | 6400 nM | –
7 | O=C(/C=C/c1ccc2c(c1)OCO2)c1ccc2c(c1)OCCO2 | 8000 nM | –
8 | COc1ccc(CC(C)C(O)c2cc(OC)c(OC)c(OC)c2)cc1O (stereo unspecified) | 600 nM | –
9 | COc1cc(/C=C(\C)C(=O)c2cc(OC)c(OC)c(OC)c2)cc(OC)c1OC | 2500 nM | –
10 | COc1cc(C(=O)[C@H]2O[C@@H]2c2cc(OC)c(OC)c(OC)c2)cc(OC)c1OC (relative stereo) | 3700 nM | –
11 | COc1ccc(CC(C)C(=O)c2cc(OC)c(OC)c(OC)c2)cc1O (stereo unspecified) | 30 nM | Activity (K562 [1]): 36%; Activity (K562 [2]): 36%; IC50 [4]: 4000 nM; Activity (K562 [5]): 28%
12 | COc1ccc(C(=O)/C(C)=C/c2ccc(OC)c(OP(=O)([O-])[O-])c2)cc1.[Na+].[Na+] | – | Activity (K562 [1]): 21%; Activity (K562 [2]): 10%; IC50 (K562 [3]; k562): 0.12 nM; IC50 [4]: 3100 nM; Activity (K562 [5]): 69%
13 | COc1cc(/C=C/C(=O)c2ccccc2)cc(OC)c1OC | 1600 nM | –
14 | CCO/C(=C\c1ccc(OC)c(F)c1)C(=O)c1cc(OC)c(OC)c(OC)c1 | 11 nM | –
15 | COc1ccc(/C=C/C(O)c2cc(OC)c(OC)c(OC)c2)cc1O (stereo unspecified) | 500 nM | –
16 | COc1ccc(C(=O)/C=C/c2cc(OC)c(OC)c(OC)c2)cc1OC | 1100 nM | –
17 | COc1ccc(CCC(=O)c2cc(OC)c(OC)c(OC)c2)cc1 | 10000 nM | –
18 | COc1cc(C(=O)/C=C/c2ccc(Cl)cc2)cc(OC)c1OC | 1500 nM | –
19 | COc1cc(C(=O)/C=C/c2cc(F)c(OC)c(F)c2)cc(OC)c1OC | 6200 nM | Activity (K562 [1]): 20%; Activity (K562 [2]): 19%; IC50 [4]: 12000 nM; Activity (K562 [5]): 61%
20 | COc1ccc(C(=O)/C(C)=C/c2cc(OC)ccc2OC)cc1 | 2300 nM | –
21 | Cc1ccc(C(=O)[C@H]2O[C@@H]2c2ccc(C)cc2)cc1 (racemic) | 12000 nM | –
22 | COc1cc(C(=O)/C=C/c2ccc(O)c(O)c2)cc(OC)c1OC | 1200 nM | –
23 | COc1ccc(/C=C/C(=O)c2cc(OC)c(OC)c(OC)c2)cc1N | 10 nM | Activity (K562 [1]): 48%; Activity (K562 [2]): 33%; IC50 [4]: 2000 nM; Activity (K562 [5]): 19%
24 | COc1ccc(C(=O)/C=C/c2ccc(OC)c(OC)c2)c(O)c1 | 16000 nM | –
25 | COc1cc(C(=O)/C=C/c2ccc(F)cc2)cc(OC)c1OC | 1500 nM | –
26 | COc1ccc(OC)c(C(=O)/C=C/c2ccc3c(c2)OCCO3)c1 | 300 nM | –

Row | SMILES | IC50 (K562 [3]; Homo sapiens, K562, 120 h) | other results
27 | COc1ccc(/C=C/C(=O)c2ccc(OC)c(OC)c2)cc1 | 10000 nM | –
28 | COc1cc(C(=O)[C@H]2O[C@@H]2c2ccc(C)cc2)cc(OC)c1OC (racemic) | 3400 nM | –
29 | COc1ccc(/C=C/C(=O)c2cc(OC)c(OC)c(OC)c2)cc1F | 300 nM | Activity (K562 [1]): 9%; Activity (K562 [2]): 19%; IC50 [4]: 1200 nM; Activity (K562 [5]): 72%
30 | COc1ccc(C(=O)CCc2cc(OC)c(OC)c(OC)c2)cc1 | 12000 nM | –
31 | COc1ccc(/C=C/C(=O)c2ccc(OC)cc2OC)cc1 [METOCHALCONE] | 2700 nM | –
32 | COc1ccc(C(=O)/C=C/c2ccc(O)c(O)c2)c(OC)c1OC | 1700 nM | –
33 | CCCO/C(=C\c1cc(F)c(OC)c(F)c1)C(=O)c1cc(OC)c(OC)c(OC)c1 | 220 nM | –
34 | COc1ccc(CCC(O)c2cc(OC)c(OC)c(OC)c2)cc1 (stereo unspecified) | 4000 nM | –
35 | CCCO/C(=C\c1ccc(OC)c(F)c1)C(=O)c1cc(OC)c(OC)c(OC)c1 | 20 nM | –
36 | COc1ccc(/C=C/C(=O)c2ccc(OC)c(OC)c2)cc1OC | 2200 nM | –
37 | COc1ccc(/C=C(\C)C(O)c2cc(OC)c(OC)c(OC)c2)cc1O (stereo unspecified) | 90 nM | Activity (K562 [1]): 44%; Activity (K562 [2]): 33%; IC50 [4]: > 10000 nM; Activity (K562 [5]): 24%
38 | COc1ccc(/C=C/C(=O)c2ccc(OC)c(OC)c2OC)cc1O | 10 nM | Activity (K562 [1]): 32%; Activity (K562 [2]): 28%; IC50 [4]: 450 nM; Activity (K562 [5]): 40%
39 | O=C(/C=C/c1ccc2c(c1)OCO2)c1ccc(F)cc1 | 5100 nM | –
40 | COc1cc(/C=C/C(=O)c2ccc3c(c2)OCCO3)cc(OC)c1OC | 5600 nM | –
41 | COc1cc(/C=C/C(=O)c2ccc3c(c2)OCO3)cc(OC)c1OC | 2900 nM | –
42 | COc1cc(/C=C/C(=O)c2ccc(F)cc2)cc(OC)c1OC | 1600 nM | –
43 | COc1cc(OC)c(C=C(C)C(=O)c2cc(OC)c(OC)c(OC)c2)c(OC)c1 | > 25000 nM | –
44 | COc1ccc(/C=C/C(=O)c2ccc(O)cc2)cc1 | 9900 nM | –
45 | COc1ccc(/C=C/C(=O)c2ccc(C)cc2)cc1 | 20000 nM | –
46 | COc1ccc(/C=C(\C)C(=O)c2cc(OC)c(OC)c(OC)c2)cc1[N+](=O)[O-] | 60 nM | Activity (K562 [1]): 36%; Activity (K562 [2]): 36%; IC50 [4]: > 10000 nM; Activity (K562 [5]): 28%
47 | COc1ccc(C(=O)/C=C/c2ccc(Cl)cc2)c(O)c1 | 9700 nM | –
48 | COc1ccc(/C=C/C(=O)c2cc(OC)c(OC)c(OC)c2)cc1[N+](=O)[O-] | 4000 nM | –
49 | COc1ccc(CCC(O)c2cc(OC)c(OC)c(OC)c2)cc1O (stereo unspecified) | 1000 nM | –
50 | COc1ccc(C(=O)[C@H]2O[C@@H]2c2ccc(C)cc2)cc1 (relative stereo) | > 30000 nM | –
51 | COc1ccc(/C=C/C(=O)c2ccc(OC)c(OC)c2OC)cc1F | 350 nM | Activity (K562 [1]): 37%; Activity (K562 [2]): 14%; IC50 [4]: 7900 nM; Activity (K562 [5]): 49%
52 | O=C(/C=C/c1ccc(F)cc1)c1ccc(F)cc1 | 4900 nM | –

Row | SMILES | IC50 (K562 [3]; Homo sapiens, K562, 120 h) | other results
53 | CCC/C(=C\c1ccc(OC)c(O)c1)C(=O)c1cc(OC)c(OC)c(OC)c1 | 2.2 nM | –
54 | CCO/C(=C\c1cc(F)c(OC)c(F)c1)C(=O)c1cc(OC)c(OC)c(OC)c1 | 230 nM | –
55 | COc1ccc(C(=O)[C@H]2O[C@@H]2c2ccc(OC)cc2)cc1 (racemic) | > 30000 nM | –
56 | COc1ccc(/C=C/C(=O)c2ccc(OC)cc2)cc1 [4,4'-DIMETHOXYCHALCONE] | 15000 nM | –
57 | COc1ccc(/C=C/C(=O)c2ccc3c(c2)OCO3)cc1OC | 7100 nM | –
58 | COc1ccc(OC)c(C(=O)/C=C/c2ccc(N(C)C)cc2)c1 | 40 nM | –
59 | CCO/C(=C\c1ccc(OC)c(O)c1)C(=O)c1cc(OC)c(OC)c(OC)c1 | 2.6 nM | –
60 | COc1ccc(C(=O)/C=C/c2cc(OC)c(OC)c(OC)c2)c(O)c1 | 4400 nM | –
61 | COc1cc(C(=O)/C=C/c2ccc(OCc3ccccc3)cc2)cc(OC)c1OC | 9900 nM | –
62 | COc1ccc([C@H]2O[C@@H]2C(=O)c2cc(OC)c(OC)c(OC)c2)cc1 (racemic) | 4900 nM | –
63 | COc1ccc(/C=C(\C)C(=O)c2ccc(OC)cc2)cc1 | 1900 nM | –
64 | Cc1ccc(/C=C/C(=O)c2ccc(C)cc2)cc1 [4,4'-DIMETHYLCHALCONE] | 11000 nM | –
65 | COc1ccc(/C=C/C(=O)c2ccc(OC)c(OC)c2OC)cc1 | 300 nM | –
66 | COc1ccc(OC)c(/C=C/C(=O)c2c(OC)cc(OC)cc2OC)c1 | 7200 nM | –
67 | COc1ccc(CCC(=O)c2cc(OC)c(OC)c(OC)c2)cc1O | 1000 nM | –
68 | COc1ccc(C(=O)/C=C/c2cc(OC)ccc2OC)c(Cl)c1 | 4000 nM | –
69 | COc1ccc(/C=C/C(O)c2cc(OC)c(OC)c(OC)c2)cc1 (stereo unspecified) | 4000 nM | –
70 | COc1ccc(/C=C/C(=O)c2cc(OC)c(OC)c(OC)c2)cc1 | 300 nM | –
71 | O=C(/C=C/c1ccccc1)c1ccccc1 [CHALCONE] | 3800 nM | –
72 | COc1ccc([C@H]2O[C@@H]2C(=O)c2ccc(C)cc2)cc1 (racemic) | 15000 nM | –
73 | COc1ccc(C(=O)/C(C)=C/c2ccc(OC)c(OP(=O)(O)O)c2)cc1 | – | IC50 (K562 [3]; k562): 500 nM
74 | COc1cc(/C=C/C(=O)c2cc(OC)c(OC)c(OC)c2)cc(OC)c1OC | 1500 nM | –
75 | COc1cc(C(=O)/C=C/c2cc(OC)c(OC)c(OC)c2)ccc1O | 3500 nM | –
76 | COc1ccc(CCCc2cc(OC)c(OC)c(OC)c2)cc1 | 500 nM | –
